Reference: patent US20200060276A1, “THIAZOLE COMPOUND AND HERBICIDE” (OAT Agrio Co., Ltd., priority 2017, published 2020)

Tests used:
Type in all cases: in vivo
Scirpus juncoides = assay: Test for Herbicidal Effect in Flooding Treatment (#1), SCIJU; details: flooding treatment at seeding, dose 2 kg/ha, visual observation on day 21
Outline: (§1)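 Sieved soil in cups was flooded and left 24 h before weed seeds were sown. Compounds in acetone, diluted with Tween 80-containing water, were dropped over the whole surface at 2 kg/ha. After 21 days in a glasshouse, growth inhibition was scored visually from 0 (<10%) to 5 (≥90% or complete withering).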

Digitaria ciliaris = assay: Test for Herbicidal Effect in Soil Treatment (#3); details: 504 h, dose of 2 kg/ha, day 21, visual observation, read-out: growth inhibition effect
From the text: 0: Growth inhibition effect is less than 10%. 1: Growth inhibition effect is equal to or greater than 10%, and less than 30%. 2; Growth inhibition effect is equal to or greater than 30%, and less than 50%. 3: Growth inhibition effect equal to or greater than 50%, and less than 70%. 4: Growth inhibition effect is equal to or greater than 70%, and less than 90%. 5: Growth inhibition effect is equal to or greater than 90%, or complete withering is achieved. (#3) Test for Herbicidal Effect in Soil Treatment: Styrol cups each having an opening diameter of 8 cm (about 52 cm^2) were respectively filled with soil (45 ml) which had been passed through a sieve (2 mm). Water (about 115 ml) was added. Thereafter, Digitaria ciliaris was seeded. Each of the compounds of the present invention was dissolved in acetone, and the obtained product was then diluted with water containing Tween 80°. Each of the resultant chemical solutions was dropped on the entire surface of an associated one of treatment sections, so that each section was treated with 1 ml of the respective chemical solution (a dose of 2 kg/ha). After the treatment, the plants were grown in a glasshouse. On day 21, a survey was conducted on the herbicidal activity by visual observation, and evaluation was made according to the following criteria. The herbicidal activity of the following comparative compounds A and B (the compounds disclosed Japanese Unexamined Patent Publication No. 2003-096059) were evaluated.

Monochoria vaginalis = assay: Test for Herbicidal Effect in Flooding Treatment (#1), MONVA; details: flooding treatment at seeding, dose 2 kg/ha, visual observation on day 21
Outline: as §1

Cyperus microiria = assay: Test for Herbicidal Effect in Flooding Treatment (#1), CYMIC; details: flooding treatment at seeding, dose 2 kg/ha, visual observation on day 21
Outline: as §1

[1] = test system: Echinochloa crus-galli (L.) P. Beauv. var. formosensis Ohwi; assay: Test for Herbicidal Effect in Flooding Treatment (#1), ECHDG; details: flooding treatment at seeding, dose 2 kg/ha, visual observation on day 21
Outline: as §1

[2] = test system: Echinochloa crus-galli (L.) P. Beauv. var. formosensis Ohwi; assay: Test for Herbicidal Effect in Flooding Treatment (#2), ECHDG at 2-2.5 leaf stage; details: for ECHDG (2-2.5L) #2 herbicidal effect (growth inhibition grade): flooding treatment at 2-2.5 leaf stage, dose 0.2 kg/ha, visual observation on day 21
Outline: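 Flooded muddy soil was seeded with the weed, and at 2–2.5 leaf stage compound in acetone/Tween 80 water was dropped on the water surface at 0.2 kg/ha. Plants were kept in a glasshouse and scored visually on day 21 from 0 (<10% growth inhibition) to 5 (≥90% or complete withering).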

| SMILES | SCIJU #1 herbicidal effect (growth inhibition grade) (Scirpus juncoides) | inhibition at 2000 g/ha (Digitaria ciliaris) | MONVA #1 herbicidal effect (growth inhibition grade) (Monochoria vaginalis) | CYMIC #1 herbicidal effect (growth inhibition grade) (Cyperus microiria) | ECHDG #1 herbicidal effect (growth inhibition grade) [1] | ECHDG (2-2.5L) #2 herbicidal effect (growth inhibition grade) [2] | inhibition at 200 g/ha ([2]; Echinochloa crus-galli, 504 h, flooding treatment (#2), ECHDG at 2-2.5 leaf stage, dose of 0.2 kg/ha, day 21, visual observation, read-out: growth inhibition effect) |
| --- | --- | --- | --- | --- | --- | --- | --- |
| CCOc1cc(F)c(CS(=O)(=O)c2ncc(Cl)s2)cc1F [Compound 1C-101, 5-chloro-2-[(2,5-difluoro-4-ethoxyphenyl)(methanesulfonyl)]-1,3-thiazole] | 5 (Growth inhibition effect is equal to or greater than 90%, or complete withering is achieved) | ≥ 50% | 5 (Growth inhibition effect is equal to or greater than 90%, or complete withering is achieved) | 5 (Growth inhibition effect is equal to or greater than 90%, or complete withering is achieved) | 5 (Growth inhibition effect is equal to or greater than 90%, or complete withering is achieved) | 5 (Growth inhibition effect is equal to or greater than 90%, or complete withering is achieved) |  |
| O=S(=O)(Cc1ccccc1OC(F)F)c1ncc(Cl)s1 [Compound 1C-38] | 5 (Growth inhibition effect is equal to or greater than 90%, or complete withering is achieved) | ≥ 90% | 5 (Growth inhibition effect is equal to or greater than 90%, or complete withering is achieved) | 5 (Growth inhibition effect is equal to or greater than 90%, or complete withering is achieved) | 5 (Growth inhibition effect is equal to or greater than 90%, or complete withering is achieved) | 5 (Growth inhibition effect is equal to or greater than 90%, or complete withering is achieved) | ≥ 90% |
| CCOc1ccc(F)cc1CS(=O)(=O)c1ncc(Cl)s1 [Compound 1C-15] | 5 (Growth inhibition effect is equal to or greater than 90%, or complete withering is achieved) | ≥ 50% |  | 5 (Growth inhibition effect is equal to or greater than 90%, or complete withering is achieved) | 5 (Growth inhibition effect is equal to or greater than 90%, or complete withering is achieved) | 5 (Growth inhibition effect is equal to or greater than 90%, or complete withering is achieved) |  |
| CCOc1cc(F)c(F)cc1CS(=O)(=O)c1ncc(Cl)s1 [Compound 1C-29] | 5 (Growth inhibition effect is equal to or greater than 90%, or complete withering is achieved) | ≥ 50% | 5 (Growth inhibition effect is equal to or greater than 90%, or complete withering is achieved) | 5 (Growth inhibition effect is equal to or greater than 90%, or complete withering is achieved) | 5 (Growth inhibition effect is equal to or greater than 90%, or complete withering is achieved) | 5 (Growth inhibition effect is equal to or greater than 90%, or complete withering is achieved) |  |
